EC50, IC50 and outcome data for 55 compounds are collected here from PubChem BioAssay AID179 (DTP/NCI, 2004).

The subject of this experiment is CEM cells HIV-1 protection, formazan growth assay. Briefly: NCI AIDS Antiviral Assay. The following applies: for IC50: measured here: growth of uninfected CEM cells. An outline of the steps:
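Five concentrations of each compound were applied to infected and uninfected human CEM cells. Protection from HIV-1 was judged from growth measured with a soluble formazan assay.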

“And” between values parts separate entries of the source, which are not always exact repeats. Equal entries are not always repeated. The source made the active and inactive calls.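 Rule for the calls: active = compounds giving half or more protection of infected cells from virus-caused growth loss, again on retest; inactive = the rest.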

Consider `O=c1c(C2=NCCC2)c(-c2ccc[nH]2)[nH]n1-c1ccccc1`, for which the EC50 is over 200 µM and the half-maximal inhibitory concentration (IC50) was over 200 µM. On to `Cc1ccc(S(=O)(=O)n2nc(Oc3ccc(Cl)c(Cl)c3)nc2N)cc1`, for which the EC50 was over 3.63 µM and the IC50 is over 3.63 µM.

For `O=C1C(C(c2ccccc2)N2CCOCC2)=C(O)C(c2ccccc2)N1c1ccccc1` (stereo not drawn), the outcome was inactive.

In the case of `COC(=O)C1=COC(C)C2Cn3ccc4c5ccccc5nc-4c3CC12` (stereo not drawn), the EC50 is over 129 µM and the IC50 stood at 75.9 µM. With `CCSc1nc(N)c2c(-c3ccc(OC)c(OC)c3)c3c(nc2n1)CCCC3`, the EC50 is over 200 µM and the half-maximal inhibitory concentration (IC50) is over 200 µM. Take `Cn1ccc(C(=O)N2CCSC2=S)c(OCc2ccccc2)c1=O`: the EC50 is over 200 µM and the 50% inhibitory concentration (IC50) came to 120 µM. As for `O=C1OC2C(O)COC2(O)C1(O)C(C[N+](=O)[O-])c1ccc(Cl)cc1` (stereo not drawn), the EC50 is over 200 µM and the IC50 was determined as 17 µM.

For the compound `C=CCCON(C(=O)OC(C)(C)C)c1ccccc1`, the EC50 was over 200 µM and the IC50 is 57.5 µM. For `Cc1ccc(S(=O)(=O)c2ccsc2NC(=O)C(F)(F)F)cc1`, in that order: over 200 µM and 46.8 µM. Turning to `CC12CCCC(C#N)(C1)OC2=O` (stereo not drawn), the outcome was inactive. With `Cn1cnc([N+](=O)[O-])c1Sc1nccn1-c1cccc2ccccc12`, the EC50 was over 102 µM and the IC50 is 13.2 µM. For `Cn1cnc([N+](=O)[O-])c1Sc1nnc(-c2cccnc2)n1C`, in that order: over 794 µM and 6.61 µM. For `O=Nc1c(-c2ccccc2)nc2ncccn12`, in that order: over 200 µM and 2.14 µM. For `C1=NCCN=Cc2ccccc2NCCNc2ccccc21`, in that order: over 200 µM and 91.2 µM.

Regarding `CC1(CCC2C=CCC2)CCCNC1=S` (stereo not drawn), the EC50 is 38 µM and the half-inhibitory concentration (IC50) was 89.1 µM. `NC(=S)N/N=C1\CC(c2ccccc2)Nc2ccccc21` (stereo not drawn): the outcome was inactive. Turning to `NCCCN(CCCN(C(=O)Nc1ccccc1)c1ccccc1)C(=O)Nc1ccccc1`, the EC50 is over 200 µM and the 50% inhibitory concentration (IC50) was 55 µM. For `O=C(/C=C/c1c(O)ccc2ccccc12)c1cccc2ccccc12`, in that order: over 162 µM and 112 µM. In the case of `CCOc1ccc(N=Cc2c3ccccc3nc3ccccc23)cc1`, the outcome was inactive. Take `O=C1OC2c3ccccc3C(=O)C2(c2ccccc2)N1c1ccccc1` (stereo not drawn): the EC50 is over 200 µM and the half-maximal inhibitory concentration (IC50) turned out to be 126 µM. Turning to `CC1=NOC(=O)/C1=C/c1ccc([N+](=O)[O-])cc1`, the EC50 is over 1070 µM and the concentration for half-maximal inhibition (IC50) turned out to be 933 µM. Turning to `O=C(O)c1ccc(S(=O)(=O)c2ccccc2)c([N+](=O)[O-])c1`, the EC50 was over 2510 µM and the IC50 came to 288 µM. The compound `CCCCNC(=O)Sc1ccccc1C(=O)NCCC(N)=O` returned an EC50 of 0.933 µM and an IC50 of 117 µM.

`CN=C1Nc2ccc(Cl)cc2C(c2ccccc2)=NN1C`: the EC50 is over 120 µM and the IC50 stood at 93.3 µM. For `CCOC(=O)c1noc(Oc2ccc(Cl)cc2Cl)n1`, in that order: over 44.7 µM and 25.1 µM. For `O=C1c2ccccc2C(=O)N1[C@@H](Cc1ccccc1)C(=O)n1cccc1CO`, in that order: over 200 µM and 174 µM.

Turning to `N#C/C(=C/NC(=S)Nc1ccc(Cl)c(Cl)c1)C(N)=O`, the EC50 is over 200 µM and the IC50 came out at 38 µM.

Consider `CCN(CC)CCCNc1ccc([N+](=O)[O-])c2nc3ccc(OC)cc3c(N)c12`, for which the EC50 is over 200 µM and the 50% inhibitory concentration (IC50) came out at 0.776 µM. For `Nc1ncnc2nc(CO)[nH]c12`, in that order: over 158 µM and over 158 µM. For `NC(Cc1ccc(S(=O)(=O)O)cc1)C(=O)NC(Cc1ccc(S(=O)(=O)O)cc1)C(=O)NC(Cc1ccc(S(=O)(=O)O)cc1)C(=O)NC(Cc1ccc(S(=O)(=O)O)cc1)C(=O)O` (stereo not drawn), in that order: over 200 µM and over 200 µM.

`O=C(O)[C@@H]1CSC(C(O)CO)N1` (stereo partly drawn): the EC50 is over 200 µM and the half-inhibitory concentration (IC50) is over 200 µM. On to `CCCCSCCC(N)P(=O)(O)O` (stereo not drawn), for which the EC50 was over 200 µM and the IC50 was over 200 µM. `O=C(NC(=O)c1ccccc1[N+](=O)[O-])Nc1ccc(Oc2ncc(Cl)cn2)c(C(F)(F)F)c1`: the result was inactive.

In the case of `COC(=O)C1=C(C(=O)OC)SC(=Cc2ccccc2C=C2SC(C(=O)OC)=C(C(=O)OC)S2)S1`, the result was inactive. Still for that read-out and setting: the result for `CCCCCCCCCCCC[N+](CCCCCCCCCCCC)=C1SCCS1` reads “inactive”. For `CCN(CC)CC(=O)N(CC)c1ccc(C)c(Cl)c1`, the EC50 was over 200 µM and the IC50 was over 200 µM. With `CCOC(=O)Cc1[nH]c(C(=O)c2ccccc2)cc1C(=O)c1ccccc1`, the EC50 is over 200 µM and the IC50 amounted to 30.2 µM. For `N#CCCn1[nH]c(=O)c(Cl)c(Cl)c1=O`, in that order: over 1070 µM and 5.62 µM. With `O=[N+]([O-])c1ccc(Cc2ccc([N+](=O)[O-])cc2)cc1`, the EC50 is over 28.2 µM and the concentration for half-maximal inhibition (IC50) was over 28.2 µM. With `CC(C)(C)NC(NC(C)(C)C)=C(C(Cl)=C(Cl)Cl)[N+](=O)[O-]`, the EC50 is over 200 µM and the half-inhibitory concentration (IC50) is over 200 µM. In the case of `CC(=O)Nc1ccc(/C=C2\SC(=S)N(/C=C(\C(C)=O)C(N)=O)C2=O)cc1`, the EC50 is over 200 µM and the IC50 turned out to be 72.4 µM.

Consider `Cc1cc(-c2ccccc2)[s+]s1`, for which the EC50 is over 200 µM; the IC50 is 89.1 µM and 174 µM.

Consider `COc1ccc2c3c([nH]c2c1[N+](=O)[O-])C(C)N(C)CC3` (stereo not drawn), for which the outcome was inactive. For the compound `COc1ccc(/C(C#N)=C/c2ccc(OC)c(OC)c2)cc1`, the EC50 is over 200 µM; the 50% inhibitory concentration (IC50) was 64.6 µM and > 33.9 µM.

With `COC(=O)c1ccccc1C1CN=NC12Cc1cc(C)cc(C)c1C2=O` (stereo not drawn), the outcome was inactive.

On to `Cc1nc(C(N)=S)sc1C(=O)/C=C/c1cccc(O)c1`, for which the EC50 was over 85.1 µM and the IC50 is over 85.1 µM. As for `COC(=O)Cc1cccc2c(=O)c(S(=O)(=O)NC(=O)Nc3ccc(Cl)cc3)c(-c3ccccc3)oc12`, the EC50 is over 200 µM and the IC50 is 41.7 µM.

As to `COC(=O)C1(C)CCCC2(C)C1CCC13OCC(CC21)C1(C(C)C)OC31` (stereo not drawn), the result was inactive. With `CC(C)c1ccc(/C(O)=C/C(=O)C(=O)/C=C(/O)c2ccc(C(C)C)cc2)cc1`, the result was inactive.

With `Cc1ccc(S(=O)(=O)N2CC2CCCCC=O)cc1` (stereo not drawn), the EC50 was over 200 µM and the IC50 was determined as 31.6 µM.

Take `O=C(OCc1ccccc1)N1c2cc([N+](=O)[O-])ccc2C(=O)N2CCC[C@H]2C1O` (stereo partly drawn): the EC50 is over 200 µM and the IC50 worked out at 138 µM. For `CC(C)[Si](OC1=C(C(=O)Nc2ccccc2Cl)CCCCC1)(C(C)C)C(C)C`, in that order: over 200 µM and 70.8 µM. As for `O=C(O)C(O)C(O)C(O)C(O)C(O)C(O)CO` (stereo not drawn), the result was inactive. As to `CC(C)OC(=O)C1(C(C)C)CCc2ccc(C(=O)CCC(=O)O)cc21` (stereo not drawn), the EC50 is over 200 µM and the IC50 is 178 µM. For the compound `COC(=O)C12CC3CC(C1)CC(C(=O)OC)(C3)C2`, the EC50 is over 513 µM and the 50% inhibitory concentration (IC50) worked out at 363 µM.
